# Values of other authors, collected in PubChem BioAssay AID1259410 (Chemical Carcinogenesis Research Information System (CCRIS), 2018).
# System: rodent tumor promotion studies, tumor incidence
# Experiment: CCRIS tumor promotion studies
compound,measurement,setting,value
CCO,outcome,"Carcinogen: 1,2-DIMETHYLHYDRAZINE [540-73-8], Doses [Carcinogen]: 21 MG/KG WEEKLY FOR 18 WKS, Doses [Promoter]: 1.23 G/KG ADDED TO DRINKING WATER DAILY FOR 25-27 WKS, Route [Carcinogen]: SUBCUTANEOUS, Route [Promoter]: ORAL (DRINKING WATER), Species: RAT, Strain/Sex: SPRAGUE-DAWLEY/MALE, FEMALE",negative
same,outcome,"Carcinogen: 1,2-DIMETHYLHYDRAZINE, 540-73-8, Doses [Carcinogen]: 30 MG/KG BW 1/WK FOR 4 WK, Doses [Promoter]: 0, 6.6% OF LIQUID DIET BEGINNING 4 WK PRIOR TO CARCINOGEN TREATMENT LIQUID DIETS SUSPENDED FOR 3 WK DURING CARCINOGEN TR, Route [Carcinogen]: SUBCUTANEOUS, Route [Promoter]: ORAL, Species: RAT, Strain/Sex: SPRAGUE-DAWLEY/MALE",rectum: tumors
same,outcome,"Carcinogen: 4-(METHYLNITROSAMINO)-1-(3-PYRIDYL)-1-BUTANONE, 64091-91-4, Doses [Carcinogen]: 0, 50 MG/KG IN DISTILLED WATER ADMINISTERED INTRATRACHEALLY TO MOTHERS ON DAY 15 OF GESTATION, Doses [Promoter]: 10% IN DRINKING WATER ADMINISTERED IN DRINKING WATER TO MOTHERS ON DAYS 5 THROUGH 16 OF PREGNANCY (STUDY DURATION: 48 WK, Route [Carcinogen]: TRANSPLACENTAL, Route [Promoter]: TRANSPLACENTAL, Species: HAMSTER, Strain/Sex: SYRIAN/FEMALE",nasal cavity: tumor; pancreas: tumor; adrenal gland: tumor
same,outcome,"Carcinogen: 4-(METHYLNITROSAMINO)-1-(3-PYRIDYL)-1-BUTANONE, 64091-91-4, Doses [Carcinogen]: 0, 50 MG/KG IN DISTILLED WATER ADMINISTERED INTRATRACHEALLY TO MOTHERS ON DAY 15 OF GESTATION, Doses [Promoter]: 10% IN DRINKING WATER ADMINISTERED IN DRINKING WATER TO MOTHERS ON DAYS 5 THROUGH 16 OF PREGNANCY (STUDY DURATION: 48 WK, Route [Carcinogen]: TRANSPLACENTAL, Route [Promoter]: TRANSPLACENTAL, Species: HAMSTER, Strain/Sex: SYRIAN/MALE",pancreas: tumor; adrenal gland: tumor
same,outcome,"Carcinogen: 4-(METHYLNITROSAMINO)-1-(3-PYRIDYL)-1-BUTANONE, 64091-91-4, Doses [Carcinogen]: 20 MMOL/KG (TOTAL DOSE) 3/WK FOR 4 WK, Doses [Promoter]: 0, 7% (V/V) IN LIQUID DIET FOR 50 WK BEGINNING 1 WK POST CARCINOGEN TREATMENT (STUDY DURATION: 55 WK), Route [Carcinogen]: GAVAGE, Route [Promoter]: ORAL, Species: RAT, Strain/Sex: F344/MALE",esophagus: tumor; oral cavity: tumor; lung: tumor
same,outcome,"Carcinogen: 7,12-DIMETHYLBENZ[A]ANTHRACENE, 57-97-6, Doses [Carcinogen]: 1% PAINTED ON RIGHT BUCCAL POUCH 1/2 D FOR 1 WK, Doses [Promoter]: 0, 5% IN LIQUID DIET BEGINNING 1 WK POST CARCINOGEN TREATMENT AND CONTINUING FOR 35 WK (STUDY DURATION: 35 WK), Route [Carcinogen]: MUCOUS MEMBRANE, Route [Promoter]: ORAL, Species: HAMSTER, Strain/Sex: SYRIAN/MALE",buccal pouch: epidermoid carcinoma
same,outcome,"Carcinogen: 17ALPHA-ETHYNYLESTRADIOL, 57-63-6, NORETHINDRONE ACETATE, 51-98-9, Carcinogen: 17ALPHA-ETHYNYLESTRADIOL, 57-63-6, NORETHINDRONE ACETATE, 51-98-9, Doses [Carcinogen]: 0.075 MG EE AND 6 MG NA IN 0.5 ML OLIVE OIL 1/D FOR 12 MO, Doses [Promoter]: 0, 10% IN DRINKING WATER 5 D/WK FOR 12 MO (STUDY DURATION: 12 MO), Route [Carcinogen]: GAVAGE, GAVAGE, Route [Promoter]: ORAL, Species: RAT, Strain/Sex: WISTAR/FEMALE",liver: hepatocellular carcinoma
same,outcome,"Carcinogen: DIETHYLNITROSAMINE, 55-18-5, Doses [Carcinogen]: 33, 50 PPM IN DRINKING WATER FOR 8 WK, Doses [Promoter]: 10% IN DRINKING WATER FOR 8 WK ADMINISTERED WITH CARCINOGEN (STUDY DURATION: 104 WK), Route [Carcinogen]: ORAL, Route [Promoter]: ORAL, Species: RAT, Strain/Sex: F344/MALE",esophagus: papilloma or carcinoma
same,outcome,"Carcinogen: Diethylnitrosamine, 55-18-5, Doses [Carcinogen]: 40 mg/l for 4 consecutive d/wk for 180 days, study duration 180 d, Doses [Promoter]: 6%, 3 d /wk for 180 d, study duration 180 d, Route [Carcinogen]: Oral (drinking water), Route [Promoter]: Oral (drinking water), Species: Mouse, Strain/Sex: CF1/Female (16, 47/Group)",stomach: squamous cell carcinoma (33% vs 30%); adenocarcinoma (17% vs 15%); both
same,outcome,"Carcinogen: METHYLAZOXYMETHANOL ACETATE, 592-62-1, Doses [Carcinogen]: 25 MG/KG IN SALINE 1/WK FOR 2 WK, Doses [Promoter]: 0.10% IN DRINKING WATER FOR 393 D BEGINNING 1 WK POST CARCINOGEN DOSE (STUDY DURATION: 414 D), Route [Carcinogen]: INTRAPERITONEAL, Route [Promoter]: ORAL, Species: RAT, Strain/Sex: ACI/MALE","large intestine: adenoma, adenocarcinoma"
same,outcome,"Carcinogen: N6-(METHYLNITROSO)ADENOSINE, 21928-82-5, Doses [Carcinogen]: 180 MG/KG 3/WK FOR 12 WK, Doses [Promoter]: 0, 15% 3/WK FOR 12 WK ADMINISTERED WITH CARCINOGEN (STUDY DURATION: 18 MO), Route [Carcinogen]: GAVAGE, Route [Promoter]: GAVAGE, Species: MOUSE, Strain/Sex: SWISS/FEMALE",thymus: lymphoma
same,outcome,"Carcinogen: N'-NITROSONORNICOTINE, 16543-55-8, Doses [Carcinogen]: 40 MMOL/KG (TOTAL DOSE) 3/WK FOR 4 WK, Doses [Promoter]: 0, 7% (V/V) IN LIQUID DIET FOR 50 WK BEGINNING 1 WK POST CARCINOGEN TREATMENT (STUDY DURATION: 55 WK), Route [Carcinogen]: GAVAGE, Route [Promoter]: ORAL, Species: RAT, Strain/Sex: F344/MALE",esophagus: tumor; oral cavity: tumor; lung: tumor
